Data published in PMC12454493, “Insight on novel sulfamoylphenyl pyrazole derivatives as anticancer carbonic anhydrase inhibitors” (Molecular Diversity, 2024).

Key:
CCRF-CEM = experiment: NCI-60 one-dose SRB screen (Leukemia); assay type: cell-based; settings: Homo sapiens, single dose 10 µM, 48 h, read-out: Growth inhibition percent (GI %)
Procedure: (§1) The National Cancer Institute (NCI) Developmental Therapeutic Program (www.dtp.nci.nih.gov) selected the 20 novel synthesized compounds 4a-e, 5a-e, 6a-c, 9a-e, 10 and 11 to test for their anticancer activity at a single dose of 10 µM using SRB assay. […] Supplementary Data S3; Table S1 presents the detailed screening results of the most promising compounds. The preliminary screening’s detailed results for the remaining compounds are elucidated in the (Supplementary Data S3; Table S2).
(§2) The guidelines of the Drug Evaluation Branch’s protocol at the NCI in Bethesda served as the basis for the in vitro anticancer screening assays. at one dose 10 µM against a panel of 60 cancer cell lines. The human tumor cell lines used belonged to nine panels: leukemia, melanoma, lung, colon, CNS, ovarian, renal, prostate and breast cancers using the sulforhodamine B (SRB) assay in a 48 h drug exposure protocol.

RPMI-8226 = experiment: NCI-60 one-dose SRB screen (Leukemia); assay type: cell-based; settings: Homo sapiens, single dose 10 µM, 48 h, read-out: Growth inhibition percent (GI %)
Procedure: as §1, §2

MOLT-4 = experiment: NCI-60 one-dose SRB screen (Leukemia); assay type: cell-based; settings: Homo sapiens, single dose 10 µM, 48 h, read-out: Growth inhibition percent (GI %)
Procedure: as §1, §2

SR = experiment: NCI-60 one-dose SRB screen (Leukemia); assay type: cell-based; settings: Homo sapiens, single dose 10 µM, 48 h, read-out: Growth inhibition percent (GI %)
Procedure: as §1, §2

K-562 = experiment: NCI-60 one-dose SRB screen (Leukemia); assay type: cell-based; settings: Homo sapiens, K562, single dose 10 µM, 48 h, read-out: Growth inhibition percent (GI %)
Procedure: as §1, §2

HL-60(TB) = experiment: NCI-60 one-dose SRB screen (Leukemia); assay type: cell-based; settings: Homo sapiens, single dose 10 µM, 48 h, read-out: Growth inhibition percent (GI %)
Procedure: as §1, §2

DU-145 = experiment: NCI-60 one-dose SRB screen (Prostate Cancer); assay type: cell-based; settings: Homo sapiens, single dose 10 µM, 48 h, read-out: Growth inhibition percent (GI %)
Procedure: as §1, §2

PC-3 = experiment: NCI-60 one-dose SRB screen (Prostate Cancer); assay type: cell-based; settings: Homo sapiens, single dose 10 µM, 48 h, read-out: Growth inhibition percent (GI %)
Procedure: as §1, §2

hCA XII = hCA XII (Homo sapiens, UniProt O43570); experiment: CA inhibitory activity, spectrophotometric p-NPA assay; assay type: biochemical; settings: p-NPA substrate, pH 7.5, 25 °C, triplicate; read-out: IC50 (µM) ± SD hCA XII
Chain of hCA XII (O43570 25-354): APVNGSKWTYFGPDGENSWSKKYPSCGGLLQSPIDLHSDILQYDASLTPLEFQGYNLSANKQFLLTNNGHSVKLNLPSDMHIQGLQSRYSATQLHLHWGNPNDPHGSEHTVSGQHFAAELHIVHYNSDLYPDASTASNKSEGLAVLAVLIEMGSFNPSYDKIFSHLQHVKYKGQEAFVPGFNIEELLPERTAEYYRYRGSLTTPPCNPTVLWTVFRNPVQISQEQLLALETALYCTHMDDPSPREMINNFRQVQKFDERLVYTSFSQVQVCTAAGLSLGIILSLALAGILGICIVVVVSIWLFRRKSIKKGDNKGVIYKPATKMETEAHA

HS 578T = experiment: NCI-60 one-dose SRB screen (Breast Cancer); assay type: cell-based; settings: Homo sapiens, single dose 10 µM, 48 h, read-out: Growth inhibition percent (GI %)
Procedure: as §1, §2

MDA-MB-468 = experiment: NCI-60 one-dose SRB screen (Breast Cancer); assay type: cell-based; settings: Homo sapiens, single dose 10 µM, 48 h, read-out: Growth inhibition percent (GI %)
Procedure: as §1, §2

MCF-7 = experiment: NCI-60 one-dose SRB screen (Breast Cancer); assay type: cell-based; settings: Homo sapiens, MCF7, single dose 10 µM, 48 h, read-out: Growth inhibition percent (GI %)
Procedure: as §1, §2

BT-549 = experiment: NCI-60 one-dose SRB screen (Breast Cancer); assay type: cell-based; settings: Homo sapiens, single dose 10 µM, 48 h, read-out: Growth inhibition percent (GI %)
Procedure: as §1, §2

MDA-MB-231/ATCC = experiment: NCI-60 one-dose SRB screen (Breast Cancer); assay type: cell-based; settings: Homo sapiens, single dose 10 µM, 48 h, read-out: Growth inhibition percent (GI %)
Procedure: as §1, §2

T-47D = experiment: NCI-60 one-dose SRB screen (Breast Cancer); assay type: cell-based; settings: Homo sapiens, T47D, single dose 10 µM, 48 h, read-out: Growth inhibition percent (GI %)
Procedure: as §1, §2

EKVX = experiment: NCI-60 one-dose SRB screen (Non-Small Cell Lung Cancer); assay type: cell-based; settings: Homo sapiens, single dose 10 µM, 48 h, read-out: Growth inhibition percent (GI %)
Procedure: as §1, §2

HOP-62 = experiment: as above; assay type: cell-based; settings: Homo sapiens, single dose 10 µM, 48 h, read-out: Growth inhibition percent (GI %)
Procedure: as §1, §2

NCI-H322M = experiment: as above; assay type: cell-based; settings: Homo sapiens, single dose 10 µM, 48 h, read-out: Growth inhibition percent (GI %)
Procedure: as §1, §2

HOP-92 = experiment: as above; assay type: cell-based; settings: Homo sapiens, single dose 10 µM, 48 h, read-out: Growth inhibition percent (GI %)
Procedure: as §1, §2

NCI-H226 = experiment: as above; assay type: cell-based; settings: Homo sapiens, single dose 10 µM, 48 h, read-out: Growth inhibition percent (GI %)
Procedure: as §1, §2

NCI-H460 = experiment: as above; assay type: cell-based; settings: Homo sapiens, single dose 10 µM, 48 h, read-out: Growth inhibition percent (GI %)
Procedure: as §1, §2

NCI-H23 = experiment: as above; assay type: cell-based; settings: Homo sapiens, single dose 10 µM, 48 h, read-out: Growth inhibition percent (GI %)
Procedure: as §1, §2

A549/ATCC = experiment: as above; assay type: cell-based; settings: Homo sapiens, single dose 10 µM, 48 h, read-out: Growth inhibition percent (GI %)
Procedure: as §1, §2

NCI-H522 = experiment: as above; assay type: cell-based; settings: Homo sapiens, single dose 10 µM, 48 h, read-out: Growth inhibition percent (GI %)
Procedure: as §1, §2

ACHN = experiment: NCI-60 one-dose SRB screen (Renal Cancer); assay type: cell-based; settings: Homo sapiens, single dose 10 µM, 48 h, read-out: Growth inhibition percent (GI %)
Procedure: as §1, §2

RXF 393 = experiment: NCI-60 one-dose SRB screen (Renal Cancer); assay type: cell-based; settings: Homo sapiens, single dose 10 µM, 48 h, read-out: Growth inhibition percent (GI %)
Procedure: as §1, §2

A498 = experiment: NCI-60 one-dose SRB screen (Renal Cancer); assay type: cell-based; settings: Homo sapiens, single dose 10 µM, 48 h, read-out: Growth inhibition percent (GI %)
Procedure: as §1, §2

TK-10 = experiment: NCI-60 one-dose SRB screen (Renal Cancer); assay type: cell-based; settings: Homo sapiens, single dose 10 µM, 48 h, read-out: Growth inhibition percent (GI %)
Procedure: as §1, §2

UO-31 = experiment: NCI-60 one-dose SRB screen (Renal Cancer); assay type: cell-based; settings: Homo sapiens, single dose 10 µM, 48 h, read-out: Growth inhibition percent (GI %)
Procedure: as §1, §2

786-0 = experiment: NCI-60 one-dose SRB screen (Renal Cancer); assay type: cell-based; settings: Homo sapiens, single dose 10 µM, 48 h, read-out: Growth inhibition percent (GI %)
Procedure: as §1, §2

Structure (SMILES): Cc1ccc(-c2nn(-c3ccc(S(N)(=O)=O)cc3)cc2C(=O)OCC(=O)Nc2ccc(S(N)(=O)=O)cc2)cc1 [Compound 4b, 2-Oxo-2-[(4-sulfamoylphenyl)amino] ethyl 1-(4-sulfamoylphenyl)-3-(p-tolyl)-1H-pyrazole-4-carboxylate]
- inhibition at 10 µM (CCRF-CEM): < 5%
- inhibition at 10 µM (RPMI-8226): < 5%
- inhibition at 10 µM (MOLT-4): < 5%
- inhibition at 10 µM (SR): 30.2%
- inhibition at 10 µM (K-562): 7.16%
- inhibition at 10 µM (HL-60(TB)): 5.09%
- inhibition at 10 µM (DU-145): < 5%
- inhibition at 10 µM (PC-3): < 5%
- IC50 (hCA XII): 0.17 ± 0.006 µM
- inhibition at 10 µM (HS 578T): 6.42%
- inhibition at 10 µM (MDA-MB-468): 18.6%
- inhibition at 10 µM (MCF-7): < 5%
- inhibition at 10 µM (BT-549): 6.7%
- inhibition at 10 µM (MDA-MB-231/ATCC): 6.64%
- inhibition at 10 µM (T-47D): 17.5%
- inhibition at 10 µM (EKVX): < 5%
- inhibition at 10 µM (HOP-62): < 5%
- inhibition at 10 µM (NCI-H322M): 6.16%
- inhibition at 10 µM (HOP-92): < 5%
- inhibition at 10 µM (NCI-H226): < 5%
- inhibition at 10 µM (NCI-H460): < 5%
- inhibition at 10 µM (NCI-H23): < 5%
- inhibition at 10 µM (A549/ATCC): 7.63%
- inhibition at 10 µM (NCI-H522): 25.6%
- inhibition at 10 µM (ACHN): < 5%
- inhibition at 10 µM (RXF 393): < 5%
- inhibition at 10 µM (A498): < 5%
- inhibition at 10 µM (TK-10): < 5%
- inhibition at 10 µM (UO-31): 14.5%
- inhibition at 10 µM (786-0): 9.87%
